Earlier results on nine compounds are cited in patent publication US20210145763A1, “LOW THC HEMP EXTRACT AND METHOD OF TREATMENT OR PREVENTION OF AN EYE DISEASE” (EYE CO PTY LTD, priority 2018, published 2021).

Series [1] concerns the target T1, mineralocorticoid receptor (Homo sapiens, UniProt P08235).
T1 sequence (P08235 1-984): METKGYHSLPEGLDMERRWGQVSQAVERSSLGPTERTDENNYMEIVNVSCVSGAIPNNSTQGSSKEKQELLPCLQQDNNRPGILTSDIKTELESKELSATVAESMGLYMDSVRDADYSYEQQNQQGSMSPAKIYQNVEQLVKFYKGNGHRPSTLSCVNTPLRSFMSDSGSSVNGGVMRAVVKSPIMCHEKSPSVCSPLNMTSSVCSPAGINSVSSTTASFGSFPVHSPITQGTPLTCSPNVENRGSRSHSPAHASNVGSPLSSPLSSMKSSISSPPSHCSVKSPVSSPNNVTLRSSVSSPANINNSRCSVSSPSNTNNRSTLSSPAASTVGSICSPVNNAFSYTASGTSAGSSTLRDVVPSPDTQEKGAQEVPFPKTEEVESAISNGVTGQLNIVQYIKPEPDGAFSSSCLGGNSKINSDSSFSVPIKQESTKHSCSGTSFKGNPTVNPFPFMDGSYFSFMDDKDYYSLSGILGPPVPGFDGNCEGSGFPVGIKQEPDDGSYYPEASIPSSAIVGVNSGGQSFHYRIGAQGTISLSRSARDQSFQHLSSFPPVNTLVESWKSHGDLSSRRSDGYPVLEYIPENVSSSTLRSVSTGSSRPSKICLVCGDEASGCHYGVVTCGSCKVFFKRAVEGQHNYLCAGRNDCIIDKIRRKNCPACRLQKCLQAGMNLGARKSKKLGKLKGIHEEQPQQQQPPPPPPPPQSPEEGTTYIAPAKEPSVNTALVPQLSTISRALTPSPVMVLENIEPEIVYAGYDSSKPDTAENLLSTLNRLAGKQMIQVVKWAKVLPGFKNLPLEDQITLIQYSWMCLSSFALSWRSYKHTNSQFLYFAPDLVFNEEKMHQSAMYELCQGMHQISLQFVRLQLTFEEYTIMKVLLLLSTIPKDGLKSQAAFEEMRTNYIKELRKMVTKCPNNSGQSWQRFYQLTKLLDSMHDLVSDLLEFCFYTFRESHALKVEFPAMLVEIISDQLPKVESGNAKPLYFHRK
Particulars: relative potency, hydrocortisone = 1.

Series [2] has as its target T2, glucocorticoid receptor (Homo sapiens, UniProt P04150).
T2 sequence (P04150 1-777): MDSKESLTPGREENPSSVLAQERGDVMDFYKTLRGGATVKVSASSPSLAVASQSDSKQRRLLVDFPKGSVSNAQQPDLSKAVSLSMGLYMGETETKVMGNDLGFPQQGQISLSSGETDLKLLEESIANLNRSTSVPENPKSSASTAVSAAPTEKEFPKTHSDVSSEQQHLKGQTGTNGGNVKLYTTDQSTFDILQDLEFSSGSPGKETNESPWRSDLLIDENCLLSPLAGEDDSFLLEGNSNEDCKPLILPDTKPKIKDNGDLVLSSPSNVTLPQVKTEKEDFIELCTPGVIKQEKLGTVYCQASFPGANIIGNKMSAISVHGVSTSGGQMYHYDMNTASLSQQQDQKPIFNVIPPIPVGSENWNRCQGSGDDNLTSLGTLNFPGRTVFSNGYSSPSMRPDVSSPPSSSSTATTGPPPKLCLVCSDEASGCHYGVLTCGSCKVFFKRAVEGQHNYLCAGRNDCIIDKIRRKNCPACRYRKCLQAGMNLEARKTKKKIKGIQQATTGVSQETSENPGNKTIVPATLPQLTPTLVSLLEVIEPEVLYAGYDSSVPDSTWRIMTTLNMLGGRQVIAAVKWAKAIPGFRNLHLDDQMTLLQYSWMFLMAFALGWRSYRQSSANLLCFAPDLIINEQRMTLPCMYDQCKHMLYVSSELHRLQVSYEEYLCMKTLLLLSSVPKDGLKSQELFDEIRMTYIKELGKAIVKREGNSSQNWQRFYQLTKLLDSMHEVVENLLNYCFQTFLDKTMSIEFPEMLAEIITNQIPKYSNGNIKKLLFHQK
Particulars: relative potency, hydrocortisone = 1.

For series [3] the following is noted: in vivo.

As to `C[C@]12CCC(=O)C=C1CC[C@@H]1[C@@H]2[C@@H](O)C[C@@]2(C)[C@H]1CC[C@]2(O)C(=O)CO` [Hydrocortisone (cortisol), Hydrocortisone], the MR potency in series [1] is on record as 1. In series [2], the GR potency was 1.

On to `C[C@H]1C[C@@H]2[C@H]([C@@H](O)C[C@@]3(C)[C@H]2CC[C@]3(O)C(=O)CO)[C@@]2(C)C=CC(=O)C=C12` [Methylprednisolone], for which the “Duration of action (t1/2 in hours)” value in series [3] was 18 to 40 h.

Take `C[C@]12C=CC(=O)C=C1CC[C@@H]1[C@@H]2[C@@H](O)C[C@@]2(C)[C@H]1CC[C@]2(O)C(=O)CO` [Prednisolone]: the “Duration of action (t1/2 in hours)” value in series [3] was 16 to 36 h. Moreover, the MR potency in series [1] is 0.8. In series [2], the GR potency is given as 4.

Turning to `CC(=O)OCC(=O)[C@@]1(O)CC[C@H]2[C@@H]3CCC4=CC(=O)CC[C@]4(C)[C@@]3(F)[C@@H](O)C[C@@]21C` [Fludrocortisone acetate], the MR potency in series [1] is recorded as 200.

`C[C@]12CCC(=O)C=C1CC[C@@H]1[C@@H]2C(=O)C[C@@]2(C)[C@H]1CC[C@]2(O)C(=O)CO` [Cortisone]: in series [1], the MR potency was 0.8. For the same compound, the GR potency in series [2] is recorded as 0.8.

Turning to `C[C@]12CCC(=O)C=C1CC[C@@H]1[C@@H]2[C@@H](O)C[C@]2(C=O)[C@@H](C(=O)CO)CC[C@@H]12` [Aldosterone], the MR potency in series [1] is reported as 200-1000. Also, the GR potency in series [2] is given as 0.3.

Turning to `C[C@]12C=CC(=O)C=C1CC[C@@H]1[C@@H]2C(=O)C[C@@]2(C)[C@H]1CC[C@]2(O)C(=O)CO` [Prednisone], the “Duration of action (t1/2 in hours)” value in series [3] was 16 to 36 h. In addition, the MR potency in series [1] was 0.8.

With `CC(=O)OCC(=O)[C@H]1CC[C@H]2[C@@H]3CCC4=CC(=O)CC[C@]4(C)[C@H]3CC[C@]12C` [Deoxycorticosterone acetate (DOCA), Deoxycorticosterone acetate], the MR potency in series [1] is given as 20. The GR potency in series [2] is 0.

`C[C@]12C=CC(=O)C=C1CC[C@H]1[C@@H]3C[C@@H](O)[C@](O)(C(=O)CO)[C@@]3(C)C[C@H](O)[C@@]12F` [Triamcinolone]: in series [3], the “Duration of action (t1/2 in hours)” value was 12 to 36 h. Further, in series [1], the MR potency is recorded as 0. Also, the GR potency in series [2] is reported as 5.
